This is an account of results in US20230399320A1, “NOVEL CAPSID ASSEMBLY INHIBITOR” (Pelemed Co., Ltd., priority 2020, published 2023).

The target in assay [1] is T1, Cp149 (truncated form of a HBV core protein) (Hepatitis B virus genotype D subtype ayw, UniProt P03146).
T1 construct: Cp149 (amino acids 1-149) is a truncated form of a HBV core protein; histidine tag (cleaved yes); made in house; host or cells: Escherichia coli BL21(DE3)
Put plainly: Protein based assay: immunoblot analysis of in vitro HBV capsid assembly. The assay is classed as biochemical. The settings on record: for inhibition at 10 µM: read-out: Protein based assay (% inhibition, 10 μM); for inhibition at 0.1 µM: read-out: Protein based assay (% inhibition), 0.1 μM; for inhibition at 1 µM: read-out: Protein based assay (% inhibition), 1 μM. How it is done: Cp149 (amino acids 1-149) is a truncated form of a HBV core protein. It was expressed in Escherichia coli, and the expressed protein was purified. The recombinant Cp149 was expressed in E. coli BL21(DE3) cells cultured in LB medium at 37° C. When the culture reached an OD600 of 0.7 to 0.8, expression of the culture was induced with 0.5 mM isopropyl-β-d-thiogalactopyranoside and the culture was cooled to 16° C. After 16 hours, the cells were harvested, flash-frozen in liquid nitrogen, and stored at −80° C. To purify Cp149, thawed cells were resuspended in lysis buffer (20 mM Tris-HCl pH 9.0, 200 mM NaCl, 10 mM imidazole, 10 μg per mL DNaseI, 1 mM phenylmethylsulfonyl fluoride), and treated with ultrasonic waves. The supernatant was loaded onto Ni-NTA affinity resin. Proteins were eluted using a 20 mM to 500 mM imidazole gradient dissolved in lysis buffer. After removing the histidine tag with thrombin, the protein was further purified by HiTrap Q anion exchange chromatography (17115401, GE Healthcare).
To determine the effect on in vitro Cp149 assembly, compounds of the present invention were added to the Cp149-containing suspension. The final concentration of Cp149 was 1 mg per mL, and the compounds of the present invention were added at concentrations of 0.1 to 10 μM. The suspension was mixed with reaction buffer (150 mM HEPES, pH 7.5, 15 mM NaCl) added in a 2:1 ratio. In vitro assembly was performed at 37° C. for 1 hour, and HBV capsid was detected by immunoblot analysis using an anti-HBV core antibody (1:2000, B0586, Dako).

A further assay has as its system HBV DNA. Put plainly: Quantitative PCR for measuring HBV DNA in cells (HBV DNA quantification). In kind it is cell-based. As for the experimental part:
After treating cells with the indicated compounds, HBV DNA secreted into the medium and intracellular HBV DNA were extracted, purified, and quantified by quantitative PCR. To isolate the secreted HBV DNA, the culture medium was recovered and centrifuged at 15,000×g to remove debris. The medium was diluted 1:1 with phosphate-buffered saline (PBS), and 1 M NaOH solution was added to a final concentration of 0.1 M. The mixture was incubated at 37° C. for 1 hour. The protein was denatured by adding 2M Tris-HCl solution (pH 7.5) to a final concentration of 0.2 M and incubating at 98° C. for 5 minutes. The protein precipitation was removed by centrifugation at 15,000×g, and the supernatant was subjected to PCR with HBV DNA primer and probe sets:
Forward: 5′-[…]-3′, Reverse: 5′-[…]-3′, Probe: 5′-[…]-3′.

[2] abbreviates: Hepatitis B virus; read-out: HBV DNA quantification (IC50 μM).
The mark [3] stands for this setting: Hepatitis B virus, read-out: HBV DNA quantification (IC50 μM).
Setting [4] is: Hepatitis B virus, read-out: HBV DNA quantification.

SMILES strings stand for the structures. Read-outs that look alike come from different tables or passages of the source.

T1 sequence (P03146 1-149): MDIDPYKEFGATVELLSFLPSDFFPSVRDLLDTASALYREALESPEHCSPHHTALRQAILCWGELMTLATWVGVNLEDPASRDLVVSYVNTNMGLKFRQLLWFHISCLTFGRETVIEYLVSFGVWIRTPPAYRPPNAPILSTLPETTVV

Consider `COc1cncc(C(=O)NCCNc2cc(Nc3ccc(N4CCOCC4)cc3)nc(SC)n2)c1` [Compound 4b, 5-methoxy-N-(2-(2-(methylthio)-6-(4-morpholinophenylamino)pyrimidin-4-ylamino)ethyl)nicotinamide], for which the inhibition at 10 µM in assay [1] worked out at 37%. For the same compound, in the assay on HBV DNA (setting [2]), the IC50 was > 10 µM.

As to `COc1ncccc1C(=O)N1CCN(c2cc(Nc3ccc(N4CCOCC4)cc3)nc([S+](C)[O-])n2)CC1` (centres unmarked) [Compound 14, (2-methoxypyridin-3-yl)(4-(2-(methylsulfinyl)-6-(4-morpholinophenylamino)pyrimidin-4-yl)piperazin-1-yl)methanone], the inhibition at 10 µM in assay [1] is 33%. For the same compound, the IC50 in the assay on HBV DNA (setting [2]) is > 10 µM.

As for `COc1cncc(C(=O)NCCNc2cc(Nc3ccc(N4CCOCC4)cc3)nc([S+](C)[O-])n2)c1` (centres unmarked) [Compound 5b, 5-methoxy-N-(2-(2-(methylsulfinyl)-6-(4-morpholinophenylamino)pyrimidin-4-ylamino)ethyl)nicotinamide], the inhibition at 10 µM in assay [1] worked out at 78%. In addition, in the assay on HBV DNA (setting [2]), the IC50 is > 10 µM.

Consider `CS(=O)(=O)c1nc(Nc2ccc(F)c(Br)c2)cc(N2CCNCC2)n1` [Compound 26d, N-(3-bromo-4-fluorophenyl)-2-(methylsulfonyl)-6-(piperazin-1-yl)pyrimidin-4-amine], for which, in assay [1], the inhibition at 0.1 µM was determined as 13% and the inhibition at 1 µM is 98%. Further, the IC50 in the assay with HBV DNA (setting [2]) is 0.547 µM.

With `CS(=O)(=O)c1nc(Nc2ccc(F)c(Br)c2)cc(NC2CCNCC2)n1` [Compound 26g, N^4-(3-bromo-4-fluorophenyl)-2-(methylsulfonyl)-N^6-(piperidin-4-yl)pyrimidine-4,6-diamine], in assay [1], the inhibition at 0.1 µM worked out at 7% and the inhibition at 1 µM was 97%. Besides, the IC50 with HBV DNA (setting [2]) worked out at 0.536 µM.

For the compound `COc1ncccc1C(=O)NCCNc1cc(Nc2ccc(F)cc2Cl)nc([S+](C)[O-])n1` (centres unmarked) [Compound 9h, N-(2-(6-(2-chloro-4-fluorophenylamino)-2-(methylsulfinyl)pyrimidin-4-ylamino)ethyl)-2-methoxynicotinamide], in assay [1], the inhibition at 10 µM came out at 43%. Further, the IC50 in the assay on HBV DNA (setting [3]) was > 10 µM.

For `COc1ncccc1C(=O)NCCNc1cc(Nc2ccccc2)nc([S+](C)[O-])n1` (centres unmarked) [Compound 9a, 2-methoxy-N-(2-(2-(methylsulfinyl)-6-(phenylamino)pyrimidin-4-ylamino)ethyl)nicotinamide], in assay [1], the inhibition at 0.1 µM stood at 14% and the inhibition at 1 µM amounted to 83%. In addition, the IC50 in the assay on HBV DNA (setting [3]) is 0.484 µM.

With `COc1ncccc1C(=O)NCCNc1cc(Nc2ccc(Br)cc2)nc(SC)n1` [Compound 8d, N-(2-(6-(4-bromophenylamino)-2-(methylthio)pyrimidin-4-ylamino)ethyl)-2-methoxynicotinamide], the inhibition at 10 µM in assay [1] came out at 76%. Besides, in the assay with HBV DNA (setting [4]), the IC50 is > 10 µM.

As for `CS(=O)(=O)c1nc(Nc2ccc(F)cc2)cc(N2CCNCC2)n1` [Compound 26a, N-(4-fluorophenyl)-2-(methylsulfonyl)-6-(piperazin-1-yl)pyrimidin-4-amine], in assay [1], the inhibition at 10 µM turned out to be 86%. Besides, the IC50 in the assay with HBV DNA (setting [2]) is 0.962 µM.

Consider `CC(C)(C)OC(=O)N1CCN(c2cc(NCc3cc(F)c(F)c(F)c3)nc(S(C)(=O)=O)n2)CC1` [Compound 22l, tert-butyl 4-(2-(methylsulfonyl)-6-(3,4,5-trifluorobenzylamino)pyrimidin-4-yl)piperazine-1-carboxylate], for which, in assay [1], the inhibition at 10 µM amounted to 89%. For the same compound, the IC50 with HBV DNA (setting [3]) turned out to be 1.02 µM.

Consider `COc1ncccc1C(=O)NCCNc1cc(Nc2ccc(F)cc2Cl)nc(SC)n1` [Compound 8g, N-(2-(6-(2-chloro-4-fluorophenylamino)-2-(methylthio)pyrimidin-4-ylamino)ethyl)-2-methoxynicotinamide], for which the inhibition at 10 µM in assay [1] came to 43%. Also, the IC50 in the assay with HBV DNA (setting [4]) was > 10 µM.

Consider `CC(C)(C)OC(=O)N1CCN(c2cc(Nc3ccc(Cl)cc3)nc(S(C)(=O)=O)n2)CC1` [Compound 22c, tert-butyl 4-(6-(4-chlorophenylamino)-2-(methylsulfonyl)pyrimidin-4-yl)piperazine-1-carboxylate], for which the inhibition at 10 µM in assay [1] was found to be 68%. In addition, in the assay with HBV DNA (setting [3]), the IC50 was determined as 0.577 µM.

Consider `CSc1nc(NCCNC(=O)c2ccc(F)cc2)cc(Nc2ccc(N3CCOCC3)cc2)n1` [Compound 4c, 4-fluoro-N-(2-(2-(methylthio)-6-(4-morpholinophenylamino)pyrimidin-4-ylamino)ethyl)benzamide], for which the inhibition at 10 µM in assay [1] was 0%. Moreover, the IC50 with HBV DNA (setting [2]) is > 10 µM.

For the compound `COc1ncccc1C(=O)NCCNc1cc(Nc2ccc(Br)cc2)nc([S+](C)[O-])n1` (centres unmarked) [Compound 9d, N-(2-(6-(4-bromophenylamino)-2-(methylsulfinyl)pyrimidin-4-ylamino)ethyl)-2-methoxynicotinamide], in assay [1], the inhibition at 0.1 µM was found to be 27% and the inhibition at 1 µM was 82%. Moreover, the IC50 in the assay with HBV DNA (setting [3]) amounted to 0.177 µM.
